{
  "source": "patent US20200347033A1",
  "about": "“MODULATORS OF THE INTEGRATED STRESS PATHWAY” (Calico Life Sciences LLC, priority 2017, published 2020)",
  "data": [
    {"test_system": "HEK293T cells carrying the ATF4 luciferase reporter", "experiment": "ATF4-Luc assay (in vitro model of vanishing white matter disease)", "assay_type": "cell-based, human", "conditions": "Homo sapiens, HEK-293T; HEK293T cells with ATF4 5'-UTR firefly luciferase reporter; 1 μg/mL tunicamycin; 7 hours; One Glo luminescence", "description": "In order to test exemplary compounds of the invention in a cellular context, a stable VWMD cell line was first constructed. The ATF4 reporter was prepared by fusing the human full-length ATF4 5′-UTR (NCBI Accession No. BC022088.2) in front of the firefly luciferase (FLuc) coding sequence lacking the initiator methionine as described in Sidrauski et al (eLife 2013). The construct was used to produce recombinant retroviruses using standard methods and the resulting viral supernatant was used to transduce HEK293T cells, which were then subsequently selected with puromycin to generate a stable cell line.\nHEK293T cells carrying the ATF4 luciferase reporter were plated on polylysine coated 384-well plates (Greiner Bio-one) at 30,000 cells per well. Cells were treated the next day with 1 μg/mL tunicamycin and 200 nM of a compound of Formula (I) for 7 hours. Luminescence was measured using One Glo (Promega) as specified by the manufacturer. Cells were maintained in DMEM with L-glutamine supplemented with 10% heat-inactivated FBS (Gibco) and Antibiotic-Antimycotic solution (Gibco).\nTable 2 below summarizes the EC50 data obtained using the ATF4-Luc assay for exemplary compounds of the invention.", "units": {"EC50": "nM"}, "values": [
      {"compound": "O=C(COc1ccc(Cl)c(F)c1)N[C@H]1CC[C@H](N2CCN(c3ccc(C(F)(F)F)cn3)C2=O)CC1", "note": "[Compound 132, 2-(4-chloro-3-fluorophenoxy)-N-[(1r,4r)-4-{2-oxo-3-[5-(trifluoromethyl)pyridin-2-yl]imidazolidin-1-yl}cyclohexyl]acetamide]", "EC50": "< 50"},
      {"compound": "O=C(COc1ccc(Cl)c(F)c1)NC12CCC(N3CC(c4ccc(Cl)c(F)c4)CC3=O)(CC1)C[C@@H]2O", "note": "(stereo partly drawn) [Compound 163, 2-(4-chloro-3-fluorophenoxy)-N-{(2S)-4-[4-(4-chloro-3-fluorophenyl)-2-oxopyrrolidin-1-yl]-2-hydroxybicyclo[2.2.2]octan-1-yl}acetamide]", "EC50": "< 50"},
      {"compound": "CC1(c2ccc(Cl)cc2)CN=C(C23CC(NC(=O)COc4ccc(Cl)c(F)c4)(C2)C3)O1", "note": "(stereo not drawn) [Compound 164, 2-(4-chloro-3-fluorophenoxy)-N-{3-[5-(4-chlorophenyl)-5-methyl-4,5-dihydro-1,3-oxazol-2-yl]bicyclo[1.1.1]pentan-1-yl}acetamide]", "EC50": "250 to 1000"},
      {"compound": "O=C(COc1ccc(Cl)c(F)c1)NC12CC(N3CC(c4ccc(Cl)c(F)c4)=CC3=O)(C1)C2", "note": "[Compound 165, 2-(4-chloro-3-fluorophenoxy)-N-{3-[4-(4-chloro-3-fluorophenyl)-2-oxo-2,5-dihydro-1H-pyrrol-1-yl]bicyclo[1.1.1]pentan-1-yl}acetamide]", "EC50": "< 50"},
      {"compound": "O=C(NC12CC(N3CC(c4ccc(Cl)c(F)c4)OC3=O)(C1)C2)c1cnc(C(F)F)cn1", "note": "(stereo not drawn) [Compound 166, N-{3-[5-(4-chloro-3-fluorophenyl)-2-oxo-1,3-oxazolidin-3-yl]bicyclo[1.1.1]pentan-1-yl}-5-(difluoromethyl)pyrazine-2-carboxamide]", "EC50": "> 2000"},
      {"compound": "O=C(NC12CC(N3CC(c4ccc(Cl)c(F)c4)OC3=O)(C1)C2)c1cc(C(F)F)no1", "note": "(stereo not drawn) [Compound 167, N-{3-[5-(4-chloro-3-fluorophenyl)-2-oxo-1,3-oxazolidin-3-yl]bicyclo[1.1.1]pentan-1-yl}-3-(difluoromethyl)-1,2-oxazole-5-carboxamide]", "EC50": "> 2000"},
      {"compound": "O=C(COc1ccc(Cl)c(F)c1)NC12CC(N3Cc4cc5ccccc5cc4C3=O)(C1)C2", "note": "[Compound 168, 2-(4-chloro-3-fluorophenoxy)-N-[3-(1-oxo-1,3-dihydro-2H-benzo[f]isoindol-2-yl)bicyclo[1.1.1]pentan-1-yl]acetamide]", "EC50": "250 to 1000"},
      {"compound": "O=C(COc1ccc(Cl)c(F)c1)NC12CC(N3CC(c4ccc(Cl)cc4)COC3=O)(C1)C2", "note": "(stereo not drawn) [Compound 169, 2-(4-chloro-3-fluorophenoxy)-N-{3-[5-(4-chlorophenyl)-2-oxo-1,3-oxazinan-3-yl]bicyclo[1.1.1]pentan-1-yl}acetamide]", "EC50": "250 to 1000"}
    ]},
    {"test_system": "not given", "experiment": "not given", "conditions": "not given", "units": {"melting point": "°C"}, "values": [
      {"compound": "O=C(COc1ccc(Cl)c(F)c1)N[C@H]1CC[C@H](N2CCN(c3ccc(C(F)(F)F)cn3)C2=O)CC1", "note": "[Compound 132, 2-(4-chloro-3-fluorophenoxy)-N-[(1r,4r)-4-{2-oxo-3-[5-(trifluoromethyl)pyridin-2-yl]imidazolidin-1-yl}cyclohexyl]acetamide]", "melting point": 232}
    ]}
  ]
}
